From patent US20180015070A1, “METHODS AND COMPOSITIONS FOR UPREGULATING ENDOGENOUS ANTIOXIDANT SYSTEMS” (USANA Health Sciences, Inc., priority 2016, published 2018)
Where two headings read alike, the source gives them in different places. Marks after values point to notes of the source that are not given here. Values belong to the compound of their own block, whether it stands above or below them.

Assays:
human Nrf2 = test: Nrf2 reporter assay, agonist mode (native receptor, ARE-luciferase, CV1); assay type: cell-based; conditions: for agonist activity against human Nrf2: at the concentrations tested
[1] = system: NF-κB reporter cells (HEK293); conditions: human, 24 h
[2] = system: C. elegans strain CB5586 worms; test: phenotypic lifespan screening with C. elegans; assay type: in vivo; conditions: for anti-ageing activity / effect on chronological lifespan: over the concentrations tested; for population age in days at 25% mortality: DMSO control 11; for population age in days at 50% mortality: DMSO control 14; for population age in days at 75% mortality: DMSO control 16
Experimental: Dilutions of the test formulations were applied to individual populations of C. elegans and the lifespan of each population was monitored. Any changes in the lifespan of an individual population compared to a control population were recorded and correlated to the respective test formulation (N356 or N357) and the respective dilution (0.1 mg/ml, 1 mg/ml, and 10 mg/ml).
The N356 and N357 formulations were each prepared as individual 100 mg/ml stock solutions in dimethyl sulfoxide (DMSO). Serial dilutions of each stock solution were then prepared at 0.1 mg/ml, 1 mg/ml, and 10 mg/ml in DMSO. Control solutions of DMSO only were also prepared. Synchronous aged adult populations of C. elegans strain CB5586 worms were prepared. The CB5586 strain comprises a pharyngeal GFP (green fluorescent protein) tag and a mutation in the bus-5 gene. The pharyngeal GFP tag allows for fluorescent images of the worm populations to be taken. The mutation in the bus-5 gene causes the loss of normal cuticle antigens that permits the cuticle of the worms to become permeable to the test formulations and allow direct uptake of the test formulations to avoid interaction of the test formulations with protective mechanisms of the gut channel. Each serial dilution of each test formulation was added to a separate population of the prepared worms. The control solutions were also added to separate populations of the prepared worms. The populations of the prepared worms were then maintained on standard nematode growth media (NGM) agar plates at 20° C. with sufficient food (Escherichia coli strain OP-50).
Each worm population was then monitored by fluorescent imaging to determine the number of living and dead worms as a function of time. The fluorescent imaging was analyzed by software that recognized and counted worms based on their fluorescent intensity compared to background fluorescence. […] The ability to distinguish between living and dead worms allowed the number of living worms and cumulative number of dead worms to be monitored against time. Worm populations from a selection of fluorescent images were manually checked to verify that the software had accurately counted the number of living and dead worms.
The counts of the living and dead worms as a function of time were then analyzed for each of the worm populations and used to prepare Kaplan-Meier survival curves and associated statistics for each of the worm populations. […] The median lifespan is shown as the length of time after the last mitotic division that 50% of the test population remains viable when compared to the control population. The maximum lifespan extension is shown as the length of time after the last mitotic division that 5% of the test population remains viable when compared to the control population.
The counts of the living and dead worms as a function of time and the Kaplan-Meier survival curves and the associated statistics were then analyzed for each of the worm populations. The analysis included determining mean and median lifespan. The analysis included a non-parametric test, the Log-Rank test, which compares two survival functions for the overall lifespan assay and provides a reliable p-value summarizing the whole experiment. The analysis also included Fisher's Exact Test that calculated the significance of survival function comparisons at multiple specific time points throughout the experiment, rather than for the overall lifespan. The results of the analysis are shown below in Tables 10-17. […]

Nrf2 = Nrf2 signaling fluorescent reporter assay in human retinal epithelial cell line; assay type: cell-based; conditions: for minimum inducing concentration (Nrf2): human retinal epithelial cell line
Experimental: The assays were carried out with a fluorescent reporter assay that utilized a human retinal epithelial cell line. The assays also included validation by RT-PCR (reverse transcription polymerase chain reaction) of Nrf2 target genes. The human retinal epithelial cell line was purchased from ATCC (American Type Cell Culture, Manassas, Va.) and was configured to function as a fluorescent reporter assay. Test solutions of each of the alpha lipoic acid, resveratrol, curcumin, EGCG, Olivol®, rutin, quercetin, and hesperetin were prepared by serial dilution. Control solutions were also prepared. Positive control solutions of a known Nrf2 agonist, L-sulphoraphane was also prepared. Each test solution was then assayed for Nrf2 signaling activity using the fluorescent reporter assay and compared to control assays. The positive control solutions were also tested.

[3] = 0.1 mg/ml, compared to DMSO control
[4] = 10 mg/ml, compared to DMSO control
[5] = at 10 μM and 1 (unit not given)

SMILES: COc1ccc([C@@H]2CC(=O)c3c(O)cc(O)cc3O2)cc1O [Hesperetin, (S)-2,3-Dihydro-5,7-dihydroxy-2-(3-hydroxy-4-methoxyphenyl)-4H-1-benzopyran-4-one]
Nrf2 Fold-Activation (human Nrf2; 0.043 μg/ml active ingredient): 1.4 fold
Nrf2 Fold-Activation (human Nrf2; 0.389 μg/ml active ingredient): 1.3 fold
Nrf2 Fold-Activation (human Nrf2; 1.167 μg/ml active ingredient): 1.5 fold
Nrf2 Fold-Activation (human Nrf2; 3.5 μg/ml active ingredient): 0.94 fold
NF-κB % Live Cell ([1]; 0.043 μg/ml): 98%
NF-κB % Live Cell ([1]; 0.389 μg/ml): 99%
NF-κB % Live Cell ([1]; 1.167 μg/ml): 98%
NF-κB % Live Cell ([1]; 3.5 μg/ml): 96%

SMILES: COc1cc(/C=C/C(=O)CC(=O)/C=C/c2ccc(O)c(OC)c2)ccc1O [Curcumin, curcumin]
Nrf2 Fold-Activation (human Nrf2; 0.007 μg/ml active ingredient): 1.6 fold
Nrf2 Fold-Activation (human Nrf2; 0.022 μg/ml active ingredient): 1.7 fold
Nrf2 Fold-Activation (human Nrf2; 0.067 μg/ml active ingredient): 1.4 fold
Nrf2 Fold-Activation (human Nrf2; 0.20 μg/ml active ingredient): 0.96 fold
Nrf2 Fold-Activation (human Nrf2; 0.60 μg/ml active ingredient): 1.0 fold
Nrf2 Fold-Activation (human Nrf2; 1.81 μg/ml active ingredient): 1.6 fold
NF-κB % Live Cell ([1]; 0.6 μg/ml): 99%
NF-κB % Live Cell ([1]; 1.81 μg/ml): 97%

SMILES: O=C(O)CCCCC1CCSS1 (racemic) [Alpha lipoic acid, alpha lipoic acid]
Nrf2 Fold-Activation (human Nrf2; 1.42 μg/ml active ingredient): 1.4 fold
Nrf2 Fold-Activation (human Nrf2; 4.25 μg/ml active ingredient): 1.4 fold
Nrf2 Fold-Activation (human Nrf2; 12.7 μg/ml active ingredient): 1.5 fold
Nrf2 Fold-Activation (human Nrf2; 38.23 μg/ml active ingredient): 1.5 fold
Nrf2 Fold-Activation (human Nrf2; 114.70 μg/ml active ingredient): 2.4 fold
agonist activity against human Nrf2 (human Nrf2): very low-level agonist activity
anti-ageing activity / effect on chronological lifespan [2]: significant positive and dose dependent increase of chronological lifespan
activation of Nrf2 against a control (Nrf2; at 100 μM and 30 (unit not given)): demonstrated activation of Nrf2
minimum inducing concentration (Nrf2) (Nrf2): 1.75 µM
NF-κB % Live Cell ([1]; 1.42 μg/ml): 100%

SMILES: COc1ccc([C@@H]2CC(=O)c3c(O)cc(O[C@@H]4O[C@H](CO[C@@H]5O[C@@H](C)[C@H](O)[C@@H](O)[C@H]5O)[C@@H](O)[C@H](O)[C@H]4O)cc3O2)cc1O [N347, Hesperidin]
% Change in Mean Lifespan [2, 3]: +10%
extension of lifespan ([2]; 0.1 mg/ml, vs DMSO control): about 10%
population age in days at 25% mortality ([2]; 0.1 mg/ml): 11 days
population age in days at 50% mortality ([2]; 0.1 mg/ml): 16 days
population age in days at 75% mortality ([2]; 0.1 mg/ml): 18 days
Statistically Significant Result [2, 4]: No statistical difference
population age in days at 25% mortality ([2]; 10 mg/ml): 11 days
population age in days at 50% mortality ([2]; 10 mg/ml): 14 days
population age in days at 75% mortality ([2]; 10 mg/ml): 18 days
anti-ageing activity / effect on chronological lifespan [2]: significant positive and dose dependent increase of chronological lifespan

SMILES: C[C@@H]1O[C@@H](OC[C@H]2O[C@@H](Oc3c(-c4ccc(O)c(O)c4)oc4cc(O)cc(O)c4c3=O)[C@H](O)[C@@H](O)[C@@H]2O)[C@H](O)[C@H](O)[C@H]1O [Rutin, quercetin-3-O-rutinoside]
NF-κB % Live Cell ([1]; 1.11 μg/ml): 99%
NF-κB % Live Cell ([1]; 3.3 μg/ml): 98%
NF-κB % Live Cell ([1]; 30 μg/ml): 97%

Further lines, with some results ahead:

NF-κB % Live Cell ([1]; 0.28 μg/ml): 100%
NF-κB % Live Cell ([1]; 0.85 μg/ml): 100%
NF-κB % Live Cell ([1]; 1.81 μg/ml): 99%
SMILES: Oc1ccc(/C=C/c2cc(O)cc(O)c2)cc1 [Resveratrol, 3,5,4′-trihydroxy-trans-stilbene]
Statistically Significant Result [2, 3]: No statistical difference
anti-ageing activity / effect on chronological lifespan [2]: significant positive and dose dependent increase of chronological lifespan
activation of Nrf2 against a control (Nrf2; [5]): demonstrated activation of Nrf2

agonist activity against human Nrf2 (human Nrf2): low-level agonist activity
NF-κB % Live Cell ([1]; 23 μg/ml): 97%
NF-κB % Live Cell ([1]; 68 μg/ml): 77*** %
SMILES: O=c1c(O)c(-c2ccc(O)c(O)c2)oc2cc(O)cc(O)c12 [Quercetin, 2-(3,4-dihydroxyphenyl)-3,5,7-trihydroxy-4H-chromen-4-one]
Statistically Significant Result [2, 4]: No statistical difference
anti-ageing activity / effect on chronological lifespan [2]: significant negative effect on chronological lifespan
concentration giving more Nrf2 activation (Nrf2; 10 μM compared with 1 μM): more activation at the 1 μM concentration
activation of Nrf2 against a control (Nrf2; [5]): demonstrated activation of Nrf2
minimum inducing concentration (Nrf2) (Nrf2): 0.55 µM
